Laboratory results published in the kinase profiling compilation of Christmann-Franck et al. (2016).

Key:
Assay in all cases: radiometric filter-binding kinase assay
[1] = molecular target: BRSK1 (human) (UniProt Q8TDC3)
[2] = molecular target: BRSK2 (human) (UniProt Q8IWQ3)
[3] = molecular target: CAMKK2 (human) (UniProt Q96RR4)
[4] = molecular target: DAPK1 (human) (UniProt P53355)
[5] = molecular target: DYRK1A (human) (UniProt Q13627)
[6] = molecular target: EEF2K (human) (UniProt O00418)
[7] = molecular target: EPHB4 (human) (UniProt P54760)
[8] = molecular target: ERBB4 (human) (UniProt Q15303)
[9] = molecular target: FGFR1 (human) (UniProt P11362)
[10] = molecular target: GSK3B (human) (UniProt P49841)
[11] = molecular target: HIPK3 (human) (UniProt Q9H422)
Chain of HIPK3 (human) (Q9H422 whole entry, looked up): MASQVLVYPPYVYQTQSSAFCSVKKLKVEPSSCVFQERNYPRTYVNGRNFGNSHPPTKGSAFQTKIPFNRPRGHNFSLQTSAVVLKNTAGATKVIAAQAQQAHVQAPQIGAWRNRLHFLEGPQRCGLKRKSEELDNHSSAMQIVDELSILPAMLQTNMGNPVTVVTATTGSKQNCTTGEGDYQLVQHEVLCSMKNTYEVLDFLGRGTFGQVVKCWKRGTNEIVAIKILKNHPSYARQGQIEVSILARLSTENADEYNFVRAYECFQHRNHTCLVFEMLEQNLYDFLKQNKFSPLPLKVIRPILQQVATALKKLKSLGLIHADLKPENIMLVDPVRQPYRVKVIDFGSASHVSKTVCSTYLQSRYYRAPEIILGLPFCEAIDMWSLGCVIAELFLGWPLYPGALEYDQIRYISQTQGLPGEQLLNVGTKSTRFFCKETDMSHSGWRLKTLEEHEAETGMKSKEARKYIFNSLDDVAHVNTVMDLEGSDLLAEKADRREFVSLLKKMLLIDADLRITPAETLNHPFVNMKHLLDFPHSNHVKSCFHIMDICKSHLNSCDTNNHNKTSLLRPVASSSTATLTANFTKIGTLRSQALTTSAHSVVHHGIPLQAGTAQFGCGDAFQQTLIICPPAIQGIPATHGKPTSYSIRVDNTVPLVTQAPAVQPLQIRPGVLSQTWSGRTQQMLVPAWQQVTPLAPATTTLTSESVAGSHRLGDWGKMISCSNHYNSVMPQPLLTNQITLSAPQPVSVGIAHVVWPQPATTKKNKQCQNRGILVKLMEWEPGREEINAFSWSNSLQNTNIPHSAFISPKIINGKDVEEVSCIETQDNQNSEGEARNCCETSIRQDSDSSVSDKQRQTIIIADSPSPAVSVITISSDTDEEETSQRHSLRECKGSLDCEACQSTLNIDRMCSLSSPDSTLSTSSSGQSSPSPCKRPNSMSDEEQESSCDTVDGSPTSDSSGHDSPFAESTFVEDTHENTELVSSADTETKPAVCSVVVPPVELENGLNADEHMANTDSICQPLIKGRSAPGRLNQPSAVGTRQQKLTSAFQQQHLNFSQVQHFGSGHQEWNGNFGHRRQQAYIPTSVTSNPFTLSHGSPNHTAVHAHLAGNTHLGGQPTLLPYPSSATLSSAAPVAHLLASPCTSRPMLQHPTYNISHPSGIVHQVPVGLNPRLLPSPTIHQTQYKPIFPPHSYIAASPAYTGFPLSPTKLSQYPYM

[12] = molecular target: IGF1R (human) (UniProt P08069)
[13] = molecular target: IKBKE (human) (UniProt Q14164)
Chain of IKBKE (human) (Q14164 whole entry, looked up): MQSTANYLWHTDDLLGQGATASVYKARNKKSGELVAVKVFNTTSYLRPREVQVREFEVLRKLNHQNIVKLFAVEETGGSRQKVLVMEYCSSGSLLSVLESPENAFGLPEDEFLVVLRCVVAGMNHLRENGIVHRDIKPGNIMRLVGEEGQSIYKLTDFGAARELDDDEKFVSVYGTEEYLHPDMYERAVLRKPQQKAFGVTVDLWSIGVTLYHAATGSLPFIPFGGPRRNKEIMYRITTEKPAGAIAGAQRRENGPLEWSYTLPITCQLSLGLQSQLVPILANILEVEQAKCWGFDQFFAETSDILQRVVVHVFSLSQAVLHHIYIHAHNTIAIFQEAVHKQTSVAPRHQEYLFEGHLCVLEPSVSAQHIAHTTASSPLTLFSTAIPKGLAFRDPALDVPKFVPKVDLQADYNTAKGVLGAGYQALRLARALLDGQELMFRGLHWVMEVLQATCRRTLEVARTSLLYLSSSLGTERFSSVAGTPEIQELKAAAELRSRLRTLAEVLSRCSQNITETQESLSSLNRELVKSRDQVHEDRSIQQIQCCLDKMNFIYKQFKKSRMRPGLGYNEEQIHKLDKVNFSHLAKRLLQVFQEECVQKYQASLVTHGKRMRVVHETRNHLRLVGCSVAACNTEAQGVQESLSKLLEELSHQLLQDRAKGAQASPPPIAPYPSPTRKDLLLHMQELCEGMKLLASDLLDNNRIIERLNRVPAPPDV

[14] = molecular target: MAP2K2 (human) (UniProt P36507)
Chain of MAP2K2 (human) (P36507 whole entry, looked up): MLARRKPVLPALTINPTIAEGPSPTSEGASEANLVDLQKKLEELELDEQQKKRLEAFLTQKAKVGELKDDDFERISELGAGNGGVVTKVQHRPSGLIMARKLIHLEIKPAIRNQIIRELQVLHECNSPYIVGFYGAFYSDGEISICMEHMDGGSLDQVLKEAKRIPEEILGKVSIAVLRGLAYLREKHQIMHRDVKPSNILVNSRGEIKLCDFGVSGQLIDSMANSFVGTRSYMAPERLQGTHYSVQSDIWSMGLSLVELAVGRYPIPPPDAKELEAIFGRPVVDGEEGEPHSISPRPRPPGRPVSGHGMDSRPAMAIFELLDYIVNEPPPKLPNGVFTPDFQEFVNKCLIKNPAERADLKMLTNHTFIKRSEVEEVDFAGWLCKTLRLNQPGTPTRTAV

[15] = molecular target: MAP2K6 (human) (UniProt P52564)
Chain of MAP2K6 (human) (P52564 whole entry, looked up): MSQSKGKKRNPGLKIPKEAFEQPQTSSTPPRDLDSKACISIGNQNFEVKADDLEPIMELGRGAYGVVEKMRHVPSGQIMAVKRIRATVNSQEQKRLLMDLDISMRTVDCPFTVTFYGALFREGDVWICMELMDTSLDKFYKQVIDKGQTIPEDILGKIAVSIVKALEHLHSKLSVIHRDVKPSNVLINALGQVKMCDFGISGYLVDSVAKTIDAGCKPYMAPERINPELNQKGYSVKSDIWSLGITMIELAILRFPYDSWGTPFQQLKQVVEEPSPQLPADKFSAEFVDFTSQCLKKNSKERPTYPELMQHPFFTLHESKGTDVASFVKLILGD

[16] = molecular target: MAP3K5 (human) (UniProt Q99683)
[17] = molecular target: MAPK12 (human) (UniProt P53778)
[18] = molecular target: MAPK13 (human) (UniProt O15264)
Chain of MAPK13 (human) (O15264 whole entry, looked up): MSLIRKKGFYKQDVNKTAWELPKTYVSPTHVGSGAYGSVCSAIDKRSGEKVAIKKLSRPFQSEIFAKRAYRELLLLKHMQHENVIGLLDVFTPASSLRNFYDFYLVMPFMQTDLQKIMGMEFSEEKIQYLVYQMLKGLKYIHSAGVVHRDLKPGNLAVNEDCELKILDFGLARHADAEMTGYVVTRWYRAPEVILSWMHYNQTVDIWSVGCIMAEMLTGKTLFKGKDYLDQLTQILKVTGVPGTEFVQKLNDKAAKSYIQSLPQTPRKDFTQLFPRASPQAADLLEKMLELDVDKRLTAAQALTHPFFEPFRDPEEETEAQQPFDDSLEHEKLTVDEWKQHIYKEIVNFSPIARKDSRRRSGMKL

[19] = molecular target: MAPK3 (human) (UniProt P27361)
[20] = molecular target: MAPK9 (human) (UniProt P45984)
[21] = molecular target: MAPKAPK2 (human) (UniProt P49137)
[22] = molecular target: MAPKAPK5 (human) (UniProt Q8IW41)
[23] = molecular target: MARK1 (human) (UniProt Q9P0L2)
[24] = molecular target: MELK (human) (UniProt Q14680)
[25] = molecular target: MKNK1 (human) (UniProt Q9BUB5)
[26] = molecular target: PAK7 (human) (UniProt Q9P286)
[27] = molecular target: PHKG1 (human) (UniProt Q16816)
[28] = molecular target: PIM1 (human) (UniProt P11309)
[29] = molecular target: PIM2 (human) (UniProt Q9P1W9)
[30] = molecular target: PIM3 (human) (UniProt Q86V86)
[31] = tested on: PRKAA1 or PRKAA2 (rat); conditions: accession and sequence are those of the human protein
[32] = molecular target: PRKACA (human) (UniProt P17612)
[33] = molecular target: PRKCZ (human) (UniProt Q05513)
[34] = tested on: SGK1 (human), O00141 [S422D]
[35] = molecular target: STK3 (human) (UniProt Q13188)
Chain of STK3 (human) (Q13188 whole entry, looked up): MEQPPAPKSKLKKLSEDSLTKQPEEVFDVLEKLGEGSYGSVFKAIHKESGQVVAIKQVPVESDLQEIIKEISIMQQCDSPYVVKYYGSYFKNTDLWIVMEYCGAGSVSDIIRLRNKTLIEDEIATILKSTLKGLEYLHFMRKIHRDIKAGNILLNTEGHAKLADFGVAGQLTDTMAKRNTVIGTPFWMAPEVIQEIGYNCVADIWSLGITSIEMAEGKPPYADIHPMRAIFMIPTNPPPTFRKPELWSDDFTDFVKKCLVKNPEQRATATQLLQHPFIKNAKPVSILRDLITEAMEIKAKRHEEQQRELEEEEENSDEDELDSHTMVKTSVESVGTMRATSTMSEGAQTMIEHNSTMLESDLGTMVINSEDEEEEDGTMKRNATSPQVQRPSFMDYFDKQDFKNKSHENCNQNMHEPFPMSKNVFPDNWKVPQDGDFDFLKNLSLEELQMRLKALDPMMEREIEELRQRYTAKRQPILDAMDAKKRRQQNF

[36] = molecular target: SYK (human) (UniProt P43405)

Chain of BRSK2 (human) (Q8IWQ3 whole entry, looked up): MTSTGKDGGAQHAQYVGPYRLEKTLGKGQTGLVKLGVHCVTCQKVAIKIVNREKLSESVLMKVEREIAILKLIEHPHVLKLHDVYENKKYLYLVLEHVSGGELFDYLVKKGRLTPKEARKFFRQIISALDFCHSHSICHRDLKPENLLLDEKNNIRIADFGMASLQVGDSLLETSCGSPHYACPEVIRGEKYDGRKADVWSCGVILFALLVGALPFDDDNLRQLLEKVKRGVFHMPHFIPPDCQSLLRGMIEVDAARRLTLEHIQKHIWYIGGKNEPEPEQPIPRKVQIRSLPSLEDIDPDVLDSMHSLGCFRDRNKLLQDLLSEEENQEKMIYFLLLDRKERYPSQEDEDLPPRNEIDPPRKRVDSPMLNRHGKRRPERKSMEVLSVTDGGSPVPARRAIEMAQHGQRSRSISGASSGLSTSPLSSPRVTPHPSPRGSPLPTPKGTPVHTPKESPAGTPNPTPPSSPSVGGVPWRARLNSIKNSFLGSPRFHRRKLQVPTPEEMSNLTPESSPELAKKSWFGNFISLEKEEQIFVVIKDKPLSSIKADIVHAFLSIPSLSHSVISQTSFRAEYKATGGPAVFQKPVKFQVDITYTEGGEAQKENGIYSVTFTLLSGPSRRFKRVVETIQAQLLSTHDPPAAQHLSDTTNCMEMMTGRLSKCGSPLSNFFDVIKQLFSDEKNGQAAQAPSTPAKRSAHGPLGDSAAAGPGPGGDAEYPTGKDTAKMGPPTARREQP
Chain of CAMKK2 (human) (Q96RR4 whole entry, looked up): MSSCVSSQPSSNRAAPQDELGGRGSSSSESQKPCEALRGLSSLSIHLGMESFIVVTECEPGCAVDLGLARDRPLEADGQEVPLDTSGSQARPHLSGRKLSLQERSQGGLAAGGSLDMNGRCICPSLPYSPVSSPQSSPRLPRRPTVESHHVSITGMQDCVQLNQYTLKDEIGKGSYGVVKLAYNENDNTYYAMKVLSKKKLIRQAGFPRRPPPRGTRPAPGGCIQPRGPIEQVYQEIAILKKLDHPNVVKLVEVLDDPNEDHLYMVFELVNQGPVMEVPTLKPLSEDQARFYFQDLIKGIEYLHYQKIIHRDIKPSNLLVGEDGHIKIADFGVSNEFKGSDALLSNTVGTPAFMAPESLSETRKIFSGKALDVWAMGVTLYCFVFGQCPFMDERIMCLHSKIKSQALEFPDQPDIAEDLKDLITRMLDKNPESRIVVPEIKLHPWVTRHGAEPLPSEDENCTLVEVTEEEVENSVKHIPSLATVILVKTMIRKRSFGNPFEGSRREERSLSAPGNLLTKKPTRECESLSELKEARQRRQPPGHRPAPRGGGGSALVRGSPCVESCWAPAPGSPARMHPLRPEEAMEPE

residual activity ([1]; compound 0.01 µM): 61%
residual activity ([1]; compound 0.1 µM): 3%
residual activity ([1]; compound 1.0 µM): 1%
residual activity ([2]; compound 0.01 µM): 16%
residual activity ([2]; compound 0.1 µM): 10%
residual activity ([2]; compound 1.0 µM): 8%
residual activity ([3]; compound 0.01 µM): 64%
residual activity ([3]; compound 0.1 µM): 14%
residual activity ([3]; compound 1.0 µM): 11%
residual activity ([4]; compound 0.01 µM): 51%
residual activity ([4]; compound 0.1 µM): 18%
residual activity ([4]; compound 1.0 µM): 4%
residual activity ([5]; compound 0.01 µM): 29%
residual activity ([5]; compound 0.1 µM): 8%
residual activity ([5]; compound 1.0 µM): 3%
residual activity ([6]; compound 0.01 µM): 105%
residual activity ([6]; compound 0.1 µM): 97%
residual activity ([6]; compound 1.0 µM): 79%
residual activity ([7]; compound 0.01 µM): 102%
residual activity ([7]; compound 0.1 µM): 60%
residual activity ([7]; compound 1.0 µM): 8%
residual activity ([8]; compound 0.01 µM): 96%
residual activity ([8]; compound 0.1 µM): 63%
residual activity ([8]; compound 1.0 µM): 14%
residual activity ([9]; compound 0.01 µM): 53%
residual activity ([9]; compound 0.1 µM): 22%
residual activity ([9]; compound 1.0 µM): 3%
residual activity ([10]; compound 0.01 µM): 51%
residual activity ([10]; compound 0.1 µM): 15%
residual activity ([10]; compound 1.0 µM): 7%
residual activity ([11]; compound 0.01 µM): 83%
residual activity ([11]; compound 0.1 µM): 43%
residual activity ([11]; compound 1.0 µM): 10%
residual activity ([12]; compound 0.01 µM): 87%
residual activity ([12]; compound 0.1 µM): 64%
residual activity ([12]; compound 1.0 µM): 3%
residual activity ([13]; compound 0.01 µM): 6%
residual activity ([13]; compound 0.1 µM): 1%
residual activity ([13]; compound 1.0 µM): 2%
residual activity ([14]; compound 0.01 µM): 32%
residual activity ([14]; compound 0.1 µM): 17%
residual activity ([14]; compound 1.0 µM): 14%
residual activity ([15]; compound 0.01 µM): 10%
residual activity ([15]; compound 0.1 µM): 13%
residual activity ([15]; compound 1.0 µM): 5%
residual activity ([16]; compound 0.01 µM): 113%
residual activity ([16]; compound 0.1 µM): 15%
residual activity ([16]; compound 1.0 µM): 2%
residual activity ([17]; compound 0.01 µM): 76%
residual activity ([17]; compound 0.1 µM): 29%
residual activity ([17]; compound 1.0 µM): 6%
residual activity ([18]; compound 0.01 µM): 100%
residual activity ([18]; compound 0.1 µM): 97%
residual activity ([18]; compound 1.0 µM): 48%
residual activity ([19]; compound 0.1 µM): 4%
residual activity ([19]; compound 1.0 µM): 2%
residual activity ([20]; compound 0.01 µM): 101%
residual activity ([20]; compound 0.1 µM): 98%
residual activity ([20]; compound 1.0 µM): 4%
residual activity ([21]; compound 0.01 µM): 19%
residual activity ([21]; compound 0.1 µM): 0%
residual activity ([21]; compound 1.0 µM): -1%
residual activity ([22]; compound 0.01 µM): 81%
residual activity ([22]; compound 0.1 µM): 15%
residual activity ([22]; compound 1.0 µM): 2%
residual activity ([23]; compound 0.01 µM): 11%
residual activity ([23]; compound 0.1 µM): 5%
residual activity ([23]; compound 1.0 µM): 5%
residual activity ([24]; compound 0.01 µM): 18%
residual activity ([24]; compound 0.1 µM): 10%
residual activity ([24]; compound 1.0 µM): 5%
residual activity ([25]; compound 0.01 µM): 61%
residual activity ([25]; compound 0.1 µM): 16%
residual activity ([25]; compound 1.0 µM): 9%
residual activity ([26]; compound 0.01 µM): 17%
residual activity ([26]; compound 0.1 µM): 4%
residual activity ([26]; compound 1.0 µM): 2%
residual activity ([27]; compound 0.1 µM): 1%
residual activity ([27]; compound 1.0 µM): 1%
residual activity ([28]; compound 0.01 µM): 71%
residual activity ([28]; compound 0.1 µM): 16%
residual activity ([28]; compound 1.0 µM): 1%
residual activity ([29]; compound 0.01 µM): 93%
residual activity ([29]; compound 0.1 µM): 30%
residual activity ([29]; compound 1.0 µM): 4%
residual activity ([30]; compound 0.01 µM): 17%
residual activity ([30]; compound 0.1 µM): 10%
residual activity ([30]; compound 1.0 µM): 10%
residual activity ([31]; compound 0.01 µM): 6%
residual activity ([31]; compound 0.1 µM): 2%
residual activity ([31]; compound 1.0 µM): 1%
residual activity ([32]; compound 0.01 µM): 29%
residual activity ([32]; compound 0.1 µM): 5%
residual activity ([32]; compound 1.0 µM): 2%
residual activity ([33]; compound 0.01 µM): 110%
residual activity ([33]; compound 0.1 µM): 56%
residual activity ([33]; compound 1.0 µM): 15%
residual activity ([34]; compound 0.01 µM): 79%
residual activity ([34]; compound 0.1 µM): 32%
residual activity ([34]; compound 1.0 µM): 10%
residual activity ([35]; compound 0.01 µM): 18%
residual activity ([35]; compound 0.1 µM): 16%
residual activity ([35]; compound 1.0 µM): 9%
residual activity ([36]; compound 0.01 µM): 21%
residual activity ([36]; compound 0.1 µM): 6%
residual activity ([36]; compound 1.0 µM): 2%
Structure (SMILES): CNC(=O)C1[C@H]2O[C@@](C)([C@@H]1N)n1c3ccccc3c3c4c(c5c6ccccc6n2c5c31)C(=O)NC4 (stereo partly specified)
